Data reported in patent US20080176854A1, “Nitro-Substituted Phenyl-Piperazine Compounds, Their Preparation and Use in Medicaments” (Laboratorios Del Dr. Esteve S.A, priority 2004, published 2008).

Target: T1, 5HT6-human recombinant receptor (Homo sapiens, UniProt P50406)
T1 construct: purchased Receptor Biology; host or cells: HEK-293 cell membranes
Test: Binding to serotonin receptor 5-HT6 ([3H]-LSD radioligand displacement)
Conditions: membranes of HEK-293 cells expressing the receptor; radioligand [3H]-LSD 2.7 nM; 60 minutes at 37° C; triplicate
Method: I) Binding to Serotonin Receptor 5-HT6
Cell membranes of HEK-293 cells expressing the 5HT6-human recombinant receptor were supplied by Receptor Biology. In said membranes the receptor concentration is 2.18 pmol/mg protein and the protein concentration is 9.17 mg/ml. The experimental protocol follows the method of B. L. Roth et al. [B. L. Roth, S. C. Craigo, M. S. Choudhary, A. Uluer, F. J. Monsma, Y. Shen, H. Y. Meltzer, D. R. Sibley: Binding of Typical and Atypical Antipsychotic Agents to 5-Hydroxytryptamine-6 and Hydroxytryptamine-7 Receptors. The Journal of Pharmacology and Experimental Therapeutics, 1994, 268, 1403] with the following slight changes. The respective part of the literature description is hereby incorporated by reference and forms part of the disclosure.
The commercial membrane is diluted (1:40 dilution) with the binding buffer: 50 mM Tris-HCl, 10 mM MgCl2, 0.5 mM EDTA (pH 7.4). The radioligand used is [^3H]-LSD at a concentration of 2.7 nM with a final volume of 200 μl. Incubation is initiated by adding 100 μl of membrane suspension, (≈22.9 μg membrane protein), and is prolonged for 60 minutes at a temperature of 37° C. The incubation is ended by fast filtration in a Brandel Cell Harvester through fiber glass filters made by Schleicher & Schuell G F 3362 pretreated with a solution of polyethylenimine at 0.5%. The filters are washed three times with three milliliters of buffer Tris-HCl 50 mM pH 7.4. The filters are transferred to flasks and 5 ml of Ecoscint H liquid scintillation cocktail are added to each flask. The flasks are allowed to reach equilibrium for several hours before counting with a Wallac Winspectral 1414 scintillation counter. Non-specific binding is determined in the presence of 100 μM of serotonin. Tests were made in triplicate. The inhibition constants (Ki, nM) were calculated by non-linear regression analysis using the program EBDA/LIGAND described in Munson and Rodbard, Analytical Biochemistry, 1980, 107, 220, the respective part of which is hereby incorporated by reference and forms part of the disclosure.
The binding of the nitro-substituted phenyl-piperazine compounds to the 5-HT6 receptor was determined as described above.

T1 sequence (P50406 whole entry): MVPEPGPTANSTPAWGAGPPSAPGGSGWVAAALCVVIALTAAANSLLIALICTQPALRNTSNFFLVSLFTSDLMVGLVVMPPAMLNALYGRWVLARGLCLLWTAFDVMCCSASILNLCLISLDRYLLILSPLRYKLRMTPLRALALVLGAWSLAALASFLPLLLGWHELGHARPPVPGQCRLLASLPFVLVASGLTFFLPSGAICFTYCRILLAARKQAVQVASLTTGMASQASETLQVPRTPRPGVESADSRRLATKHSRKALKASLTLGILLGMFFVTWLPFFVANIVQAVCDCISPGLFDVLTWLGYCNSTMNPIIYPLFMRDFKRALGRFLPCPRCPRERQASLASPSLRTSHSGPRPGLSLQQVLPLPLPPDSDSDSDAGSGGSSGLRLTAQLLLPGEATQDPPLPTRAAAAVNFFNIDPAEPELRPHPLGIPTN

SMILES	Ki [nM]
CN1CCN(c2ccc([N+](=O)[O-])c(NCc3ccc(F)cc3)c2)CC1 [Example 2, (4-Fluoro-benzyl)-[5-(4-methyl-piperazin-1-yl)-2-nitro-phenyl]-amine]	172
CN1CCN(c2ccc([N+](=O)[O-])c(Nn3cccc3)c2)CC1 [Example 5, [5-(4-Methyl-piperazin-1-yl)-2-nitro-phenyl]-pyrrol-1-yl-amine]	481
CN1CCN(c2ccc([N+](=O)[O-])c(Oc3ccccc3)c2)CC1 [Example 7, 1-Methyl-4-(4-nitro-3-phenoxy-phenyl)-piperazine]	26.6
CN1CCN(c2ccc([N+](=O)[O-])c(NCc3ccco3)c2)CC1 [Example 11, Furan-2-ylmethyl-[5-(4-methyl-piperazin-1-yl)-2-nitro-phenyl]-amine]	61.2
O=[N+]([O-])c1ccc(N2CCN(CCO)CC2)cc1NCCc1ccccc1 [Example 12, 2-[4-(4-Nitro-3-phenethylamino-phenyl)-piperazin-1-yl]-ethanol]	6330
Cc1ccccc1OCCNc1cc(N2CCNCC2)ccc1[N+](=O)[O-] [Example 13, (2-Nitro-5-piperazin-1-yl-phenyl)-(2-o-tolyloxy-ethyl)-amine]	162
CN1CCN(c2ccc([N+](=O)[O-])c(N3CCOCC3)c2)CC1 [Example 15, 4-[5-(4-Methyl-piperazin-1-yl)-2-nitro-phenyl]-morpholine]	2710
CN1CCN(c2ccc([N+](=O)[O-])c(-n3nc(-c4ccccc4)c4ccccc4c3=O)c2)CC1 [Example 16, 2-[5-(4-Methyl-piperazin-1-yl)-2-nitro-phenyl]-4-phenyl-2H-phthalazin-1-one]	732
CC1CN(c2ccc([N+](=O)[O-])c(NCCOc3ccc(Cl)cc3)c2)CC(C)N1 (stereo not drawn) [Example 17, [2-(4-Chloro-phenoxy)-ethyl]-[5-(3,5-dimethyl-piperazin-1-yl)-2-nitro-phenyl]-amine]	5000
Cc1cc(C)n(-c2cc(N3CCN(C)CC3)ccc2[N+](=O)[O-])n1 [Example 21, 1-[3-(3,5-Dimethyl-pyrazol-1-yl)-4-nitro-phenyl]-4-methyl-piperazine]	250
O=[N+]([O-])c1ccc(N2CCNCC2)cc1NCc1ccccc1 [Example 22, Benzyl-(2-nitro-5-piperazin-1-yl-phenyl)-amine]	27.5
CN1CCN(c2ccc([N+](=O)[O-])c(NCCc3ccccc3)c2)CC1 [Example 23, [5-(4-Methyl-piperazin-1-yl)-2-nitro-phenyl]-phenethyl-amine]	118
CN1CCN(c2ccc([N+](=O)[O-])c(NCc3cccnc3)c2)CC1 [Example 24, [5-(4-Methyl-piperazin-1-yl)-2-nitro-phenyl]-pyridin-3-ylmethyl-amine]	1270
O=[N+]([O-])c1ccc(N2CCNCC2)cc1NCc1cccnc1 [Example 26, (2-Nitro-5-piperazin-1-yl-phenyl)-pyridin-3-ylmethyl-amine]	1510
O=[N+]([O-])c1ccc(N2CCNCC2)cc1N1CCN(Cc2ccccc2)CC1 [Example 27, 1-Benzyl-4-(2-nitro-5-piperazin-1-yl-phenyl)-piperazine]	3780
CN1CCN(c2ccc([N+](=O)[O-])c(NC(c3ccccc3)c3ccccc3)c2)CC1 [Example 29, Benzhydryl-[5-(4-methyl-piperazin-1-yl)-2-nitro-phenyl]-amine]	4490
O=[N+]([O-])c1ccc(N2CCNCC2)cc1NCCOc1ccccc1 [Example 30, (2-Nitro-5-piperazin-1-yl-phenyl)-(2-phenoxy-ethyl)-amine]	114
CN1CCN(c2ccc([N+](=O)[O-])c(-n3nc(-c4ccccc4)c4ccccc4c3=O)c2)CC1 [Example 31, 2-[5-(4-Methyl-piperazin-1-yl)-2-nitro-phenyl]-4-phenyl-2H-phthalazin-1-one]	1710
Cc1cc(C)n(-c2cc(N3CCNCC3)ccc2[N+](=O)[O-])n1 [Example 32, 1-[3-(3,5-Dimethyl-pyrazol-1-yl)-4-nitro-phenyl]-piperazine]	482
O=[N+]([O-])c1ccc(N2CCNCC2)cc1NCCc1ccccc1 [Example 33, (2-Nitro-5-piperazin-1-yl-phenyl)-phenethyl-amine]	33.1
CN1CCN(c2ccc([N+](=O)[O-])c(NCCOc3ccc(C(C)(C)C)cc3)c2)CC1 [Example 45, [2-(4-tert-Butyl-phenoxy)-ethyl]-[5-(4-methyl-piperazin-1-yl)-2-nitro-phenyl]-amine]	80.3
COc1ccc(OCCNc2cc(N3CCN(C)CC3)ccc2[N+](=O)[O-])cc1 [Example 46, [2-(4-Methoxy-phenoxy)-ethyl]-[5-(4-methyl-piperazin-1-yl)-2-nitro-phenyl]-amine]	245
COc1ccccc1OCCNc1cc(N2CCN(C)CC2)ccc1[N+](=O)[O-] [Example 51, [2-(2-Methoxy-phenoxy)-ethyl]-[5-(4-methyl-piperazin-1-yl)-2-nitro-phenyl]-amine]	19.1
O=[N+]([O-])c1ccc(N2CCNCC2)cc1NCc1ccc(Cl)cc1 [Example 52, (4-Chloro-benzyl)-(2-nitro-5-piperazin-1-yl-phenyl)-amine]	8.3
O=[N+]([O-])c1ccc(N2CCN(Cc3ccccc3)CC2)cc1NCc1ccccc1 [Example 53, Benzyl-[5-(4-benzyl-piperazin-1-yl)-2-nitro-phenyl]-amine]	34.3
Cc1ccccc1OCCNc1cc(N2CCN(C)CC2)ccc1[N+](=O)[O-] [Example 55, [5-(4-Methyl-piperazin-1-yl)-2-nitro-phenyl]-(2-o-tolyloxy-ethyl)-amine]	26.1
CN1CCN(c2ccc([N+](=O)[O-])c(NCc3ccc(Cl)cc3)c2)CC1 [Example 56, (4-Chloro-benzyl)-[5-(4-methyl-piperazin-1-yl)-2-nitro-phenyl]-amine]	59
O=[N+]([O-])c1ccc(N2CCNCC2)cc1NCc1ccco1 [Example 57, Furan-2-ylmethyl-(2-nitro-5-piperazin-1-yl-phenyl)-amine]	25
O=[N+]([O-])c1ccc(N2CCNCC2)cc1NCCOc1ccc(Cl)cc1 [Example 58, [2-(4-Chloro-phenoxy)-ethyl]-(2-nitro-5-piperazin-1-yl-phenyl)-amine]	290
CC(Nc1cc(N2CCN(C)CC2)ccc1[N+](=O)[O-])c1ccccc1 (stereo not drawn) [Example 59, [5-(4-Methyl-piperazin-1-yl)-2-nitro-phenyl]-(1-phenyl-ethyl)-amine]	11.9
